Laboratory results as given in patent publication US7482008B1, “Human T cell reactive feline protein (TRFP) isolated from house dust and uses therefor” (Merck Patent GmbH, priority 1989, dated 2009).

Tests used:
B6CBAF1 mice = assay: Tolerization s.c. then challenge with recombinant chain 1 of TRFP, chain 1 specific IL-2 production; type: in vivo, mouse; settings: 150 μg/dose s.c. days 0 and 5; challenge 100 μg recombinant chain 1 in CFA
Procedure: The mice were injected with 150 μg/dose of either the TRFP chain 1 or each of the peptides (days 0 and 5). The PBS alone and the PBS/peptides were injected in 300 μl/dose. The PBS/chain 1 of the TRFP protein was injected in 100 μl/dose. All tolerizing doses were at a single site under the dorsal skin between the forelimbs. On day 10 all of the animals received a challenge injection of 100 μg recombinant chain 1 of TRFP in 200 μl CFA as described above. On day 20 the animals were sacrificed and draining lymph nodes were removed as described above. The lymph node cells were suspended, rinsed, and cultured as above with or without 150 μg/ml recombinant chain 1 of TRFP. The lymph node cell cultures in this experiment were each 0.1 ml. The supernatants from the cultures were assayed for IL-2 as described above.

[1] = test system: PBMC from cat-allergic patients; assay: IL-2, IFN-gamma and IL-4 measurements by PCR in primary 36 hour PBMC culture; type: cell-based, human; settings: Patient 409 primary 36 hour culture; for STIMULATION INDEX IFN-γ / STIMULATION INDEX IL-4: PCR, vs medium control
Procedure: Peripheral blood mononuclear cells (PBMC) were purified from cat-allergic patients as described in Example 5. Five×10^6 PBMC were cultured at 2×10^6/ml for 36 hours in the presence of medium only, 20 μg purified TRFP/ml or 50 μg peptide/ml. The cells were then washed two times with phosphate buffered saline (PBS, pH 7.2) and lysed with 2 ml […] guanidinium isothiocyanate, 0.5% Sarkosyl, 5 mM sodium citrate, 0.1 M 2-mercaptoethanol, pH 7.0. The lysate was then forced through a 26 gauge needle to shear genomic DNA, and was layered onto a 2 ml cushion of 5.7 M CsCl, 0.01 M EDTA, pH 7.5 in diethylpyrocarbonate (DEPC)-treated water. The lysate was centrifuged at 35,000 RPM in a Beckman SW41 rotor for 18 hours at 20° C. The RNA pellet was resuspended in 0.4 ml TE (10 mM Tris, 1 mM EDTA), pH 7.5, 0.1% SDS, and then extracted three times with 0.5 ml phenol/0.2 ml chloroform. The RNA was then precipitated on dry ice with 2.5 volumes ice-cold ethanol, 1/10 volume 3 M sodium acetate, pH 5.2 in DEPC-treated water, rinsed once with 70% ethanol in DEPC-treated water, and dried. The RNA pellet was resuspended in 2 μl TE., pH 7.5 in DEPC-treated water.
Total cellular RNA was converted to cDNA using the Superscript kit (BRL, Bethesda, Md.). Two μl of RNA were added to one μl oligo (dT)12-18 (500 μg/ml) and 9 μl water. The sample was heated to 70° C. for 10 minutes and ice quenched. Four μl 5× buffer were added to the sample along with 2 μl 0.1 M DTT and 1 μl dNTP mix (10 mM each, dATP, dCTP, dGTP, dTTP). One μl reverse transcriptase (200U) was added and the reaction was carried out for one hour at 42° C. The reaction was terminated by incubation of the sample at 90° C. for five minutes and stored at −80° C.
Ten-fold serial dilutions of T cell cDNA in 10 mM TRIS, pH 7.5 were amplified using the standard kit and protocol recommended by Perkin Elmer-Cetus (Redwood City, Calif.). Each sample received 26.65 μl water, 5 μl ×PCR buffer, 8 μl of dNTP mix (1.25 mM each of dATP, dCTP, dGTP and dTTP), 0.1 μl alpha 32P-dCTP (3000 Ci/mmol), 0.25 μl AmpliTaq, 5 μl cDNA and 5 μl cytokine-specific 5′ and 3′ primers (20 micromolar). The primers used for most cytokines and the beta-actin control were purchased from Clontech (Redwood City, Calif.). The human IL-4 primers were purchased from Research Genetics (Huntsville, Ala.) and had the following sequences: 5′ hIL-4 primer (SEQ. ID. NO: 58):
The PCR products were extracted once with 25 μl chloroform and 25 μl of each sample were then electrophoresed on an 8% polyacrylamide gel at 250 V. The gel was dried and exposed to pre-flashed x-ray film. Several exposures of each gel were then scanned using a Shimadzu flying spot laser densitometer. Values on the linear portion of the titrations were then compared to the medium control values to obtain a stimulation index for each sample. Primers for beta-actin were included as a control for general cDNA levels in each sample. Where the medium control values are not detectable, the lowest measurable response was set at 1.00. In other experiments, levels of cytokine cDNA can be compared directly with previously amplified cytokine specific cDNAs as standards. Thus, absolute levels of particular cytokine cDNAs can be compared from one sample to another and from one experiment to another. In this experiment, IL-2, IL-4 and IFN-gamma levels were measured. As shown, in this particular cat-allergic patient, peptides such as Fel 18 generate more IL-4 than certain other TRFP-derived peptides (Fel 14 and Fel 17). This analysis will be expanded to studies of other cytokines involved in the generation of allergic responses, such as IL-5, IL-8, IL-9, TGF-beta. Samples of cDNA from each treatment can also be saved for later analysis once additional cytokines are identified and sequenced. Peptides generating a spectrum of cytokines favorable for the generation of allergic responses can be avoided for therapeutic use in the treatment of cat allergy. […]

mice = assay: Biweekly subcutaneous administration, peptide specific antibody in sera; type: in vivo, mouse; settings: for antibodies specific for peptide (IgG or IgE) in sera: 100 μg s.c. in PBS on days 0, 14, 28 and 56, alone or in combination; for IgG antibodies to peptide, sera dilution: animals injected with the peptides in CFA
Procedure: This animal model experiment was designed to simulate a human treatment protocol such as that described in Example 30. Mice were administered subcutaneous injections of 100 μg peptide/100 μl PBS on days 0, 14, 28 and 56. Mice were administered peptide X or peptide Y either alone or in combination. […] There was no specific binding above background levels for IgG or IgE.

“recombinant chain 1: recombinant TRFP chain 1 expressed in E. coli” was tested, and the “IL-2 production specific for chain 1 of TRFP” value (B6CBAF1 mice) was “effective in decreasing IL-2 production”.

For “TRFP: human T cell reactive feline protein affinity purified from house dust; two covalently linked chains”, the “RATIO IFN/IL-4” value [1] was 0.9, the “STIMULATION INDEX IFN-γ” value [1] was 2.1 and the “STIMULATION INDEX IL-4” value [1] was 3.8.

With “peptide Y: amino acid residues 29-55 from chain 1 of TRFP (SEQ. ID. NO: 18) (KALPVVLENARILKNCVDAKMTEEDKE)” the “antibodies specific for peptide (IgG or IgE) in sera” value (mice) was “no antibodies specific for either peptide” and the “IgG antibodies to peptide, sera dilution” value (mice) was 1/4500.

For “NARILKNCVDAKMTEEDKE [Fel 4, TRFP chain 1 amino acids 37-55]”, the “RATIO IFN/IL-4” value [1] was 2.6, the “STIMULATION INDEX IFN-γ” value [1] was 25.8 and the “STIMULATION INDEX IL-4” value [1] was 10.0.

In the case of “peptide X: amino acid residues 7-30 from chain 1 of TRFP (SEQ. ID. NO: 17); Table 2 lists Fel 8-3 as 7-33 (KRDVDLFLTGTPDEYVEQVAQYKALPV)”, the “antibodies specific for peptide (IgG or IgE) in sera” value (mice) is reported as “no antibodies specific for either peptide” and the “IgG antibodies to peptide, sera dilution” value (mice) is reported as 1/4500.
